From patent US11161876B2, “Anti-inflammatory nanofibers” (Northwestern University, priority 2015, dated 2021)
Entries after “also recorded” stand apart in the source; their conditions may differ. * marks the point of attachment. C16 alkyl = CCCCCCCCCCCCCCCC*

Legend:
Settings in all cases: 10 days post-augmentation; compared between groups
[1] = test system: Rat Bladder Augmentation Model; experiment: Bladder tissue collagen quantification (Masson's Trichrome); assay type: in vivo
Experimental: (§1) Athymic female rats (weighing ˜200 g and 8-10 weeks old; National Cancer Institute Animal Production Program) underwent bladder augmentation (ref. 15; herein incorporated by reference in its entirety). Athymic rats were chosen for this study to solely examine the innate immune response to inflammation without influence of the adaptive immune response. In order to induce anesthesia, animals were given intraperitoneal injections of 60 mg/kg ketamine and 5 mg/kg xylazine. A second injection consisting of Buprenex (1 mg/kg) was administered subcutaneously to alleviate any pain/discomfort during and following surgical procedures. An approximate 1.5 cm midline vertical skin incision was created to expose the abdominal fascia and muscles. This was immediately followed by the separation of the wall leading to the identification of the bladder. An approximate 70% supratrigonal cystectomy was performed from anterior to posterior creating a clamshell. Immediately prior to bladder augmentation procedures, samples of the pro-inflammatory biological scaffold, small intestinal submucosa (SIS (0.5×0.5 cm); Cook Biotech.) (refs. 12,13,16; herein incorporated by reference in their entireties) were thoroughly dip-coated separately in one of the previously described AIF-PAs following gelation procedures. The sections of SIS were dip-coated for approximately 20 seconds and allowed to adhere to the SIS for an additional 30 seconds. Dip-coating procedures were performed at room temperature in air. The cystectomized bladder defect was then augmented with: 1) SIS (non-AIF-PA coated SIS; n=8 animals over both time-points); 2) AIF-PA1 coated SIS (denoted as SIS/AIF-PA1; n=11 animals over both time-points); 3) AIF-PA2 coated SIS (denoted as SIS/AIF-PA2; n=8 animals over both time-points); 4) AIF-PA3 coated SIS (denoted as SIS/AIF-PA3; n=3); 5) AIF-PA4 coated SIS (denoted as SIS/AIF-PA4; n=3 animals); 6) AIF-PA5 coated SIS (denoted as SIS/AIF-PA5; n=3 animals); and 7) AIFC-PA6 coated SIS (denoted as SIS/AIFC-PA6; n=9 animals over both time-points). The bladder was finally covered with omentum after being closed in a watertight manner utilizing 7-0 polyglactin suture. The abdominal wall was then closed in a single layer with 5-0 ethibond running suture and the skin re-approximated with 9 mm autoclips. Each group was sacrificed at 10 day and 5 week time-points.
Explanted bladder specimens encompassing the entire thickness of the bladder were isolated immediately following euthanasia and processed (ref. 15; herein incorporated by reference in its entirety). Specimens were fixed in a 10% buffered formalin phosphate (Fisher Scientific, Inc.) solution followed by a series of graded ethanol exchanges then embedded in paraffin (Fisher Scientific). Embedded tissues were sectioned onto glass slides at a thickness of 10 μm using a RM2125 RT Microtome (Leica) onto glass slides and subjected to staining with Masson's Trichrome (Sigma-Aldrich Corp.) reagent. The paraffin was removed from tissue containing slides using a hot plate at 62° C. for 6 minutes and was followed by treatment with xylenes, graded ethanol washes and DI water. Slides were placed in Bouin's solution (Sigma-Aldrich Corp.) for approximately 15 min then rinsed under running tap water. The samples were then stained 5 minutes with Hematoxylin and rinsed with running water and subsequently stained with Scarlet-Acid Fuchsin (Sigma-Aldrich Corp.). Slides were rinsed again with DI water and placed into a mixture of PTA/PMA, followed by Aniline Blue solution and a 1% acetic acid wash. Finally, slides were placed in 95-100% ethanol and rinsed in xylene. Following air drying, a coverslip was placed over the specimen sample and secured with Permaslip (Alban Scientific Inc).
Bladder tissue specimens were evaluated for collagen content (refs. 13,15,17; herein incorporated by reference in their entireties). […]

[2] = test system: Rat Bladder Augmentation Model; experiment: Blood vessel quantification in areas of bladder tissue regeneration; assay type: in vivo
Experimental: as §1
Trichrome sample images were opened with Adobe Photoshop CS3 and were initially characterized utilizing a Nikon Eclipse 50i Microscope in addition to Spot Advanced Imaging Software. Vessel numbers were quantified utilizing the pen tool based upon n=10 images per graft in regenerated areas. Individual vessels were selected manually and subsequently quantified using the image histogram tool to acquire pixel density for each vessel. Data is represented as mean number of vessels/mm^2 (means±SE).

[3] = test system: CD68+ macrophages; experiment: Immunofluorescence quantification of CD68+ macrophages in regenerated bladder tissue; assay type: in vivo, rat
Experimental: as §1
(§2) Tissue sections comprised of SIS alone, SIS/AIF-PA1, SIS/AIF-PA2, and SIS/AIF-PA6 augmentations were subjected to immunofluorescence staining by initially undergoing antigen retrieval which consisted of 15 min of boiling in citrate buffer (0.01M citrate solution, pH 6.0 with 0.05% Tween-20) followed by cooling at room temperature for approximately 20 minutes. The antibody staining process consisted of a blocking step for 15 min in bovine serum albumin (BSA, 5 mg/ml) followed by a 40 minutes incubation at room temperature with the primary antibody. After washing with DPBS, slides were incubated for 30 min with a secondary antibody and eventually rinsed with DPBS and air dried. Slides were mounted with Vectashield (Vector Laboratories). Primary antibodies were directed against epitopes for the inflammatory markers CD68 (macrophage) (refs. 18,19; herein incorporated by reference in their entireties) MPO (neutrophil) (ref. 20; herein incorporated by reference in its entirety) or the inflammation-related proteins IL1β, TNFα, IL-10, IL-13, CD206 (M2 macrophage) (refs. 21-25; herein incorporated by reference in their entireties) and CD86 (M1 macrophage) (ref. 26; herein incorporated by reference in its entirety). Antibodies directed against the ECM in regenerating bladder tissue (including COL4A3 and fibronectin) were also utilized. Alexa Red 555 or FITC conjugated secondary antibodies (Molecular Probes) were utilized for visualization (ref. 15; herein incorporated by reference in its entirety). […]

[4] = test system: MPO+ neutrophils; experiment: Immunofluorescence quantification of MPO+ neutrophils in regenerated bladder tissue; assay type: in vivo, rat
Experimental: as §1, §2

| Substance | collagen levels, in words [1] | blood vessel formation, in words [2] | CD68+ macrophage levels, in words [3] | MPO+ neutrophil levels, in words [4] |
| --- | --- | --- | --- | --- |
| C16-VVVAAAEEEDPVKG (SEQ ID NO:5) ({C16 alkyl}-VVVAAAEEEDPVKG-NH2) [SIS/AIF-PA5, anti-inflammatory peptide amphiphile, tested dip-coated on small intestinal submucosa (SIS) scaffold] | not significantly different from those of control groups | least level of blood vessel formation; also recorded: not significantly different from those of control groups | – | – |
| C16-VVVAAAEEEKVLDGQDP (SEQ ID NO:4) ({C16 alkyl}-VVVAAAEEEKVLDGQDP-NH2) [SIS/AIF-PA4, anti-inflammatory peptide amphiphile, tested dip-coated on small intestinal submucosa (SIS) scaffold] | lower mean collagen levels | greater numbers of vessels/mm2 | significantly lower | significantly lower |
| C16-VVVAAAEEEKVLDPVKG (SEQ ID NO:3) ({C16 alkyl}-VVVAAAEEEKVLDPVKG-NH2) [SIS/AIF-PA3, anti-inflammatory peptide amphiphile, tested dip-coated on small intestinal submucosa (SIS) scaffold] | lower mean collagen levels | greater numbers of vessels/mm2 | comparable macrophage levels to SIS/AIF-PA1; also recorded: significantly lower | – |
